Publication PMC12597529, “Interaction between W41 of the hepatitis B virus preS1 surface peptide and Y146/F274 of the cellular receptor molecule Na^+/taurocholate co-transporting polypeptide is essential for virus entry” (Molecular Pharmacology, 2025)
Several values for one entry are separate records, joined by “and”; a condition that tells them apart may be missing. Equal values may be shown once. Read-outs that look alike come from different tables or passages of the source. Ends that are not written are not given here. * marks the point of attachment. Myristoyl = CCCCCCCCCCCCCC(=O)*

Key:
NTCP = conditions: most of these compounds, cited from earlier work
Description: The hepatitis B virus (HBV) belongs to the family of Hepadnaviridae. Its DNA genome encodes 3 surface proteins (HBs), namely small HBs, middle HBs, and large HBs.[1] The hepatitis D virus (HDV) is a small negative-sense RNA satellite virus and depends on the HBV envelope for entry into hepatocytes, assembly, and secretion of newly formed virions.[2] […] HBV/HDV attachment to NTCP occurs via the myristoylated preS1 domain (myr-pre ...

[1] = system: NTCPwt and NTCP-Y146A/F274A; assay: myr-preS1-AX568 peptide binding assay, NTCPwt-HEK293 vs NTCP-Y146A/F274A-HEK293 cells; set-up: species or system human; conditions: 5 to 160 nM, 37 °C, fluorescence, quadruplicate determinations, two-way ANOVA P < .01
Method: T-Rex Flp-In human embryonic kidney (HEK293) cells (Thermo Fisher Scientific; RRID CVCL_0045) were grown in 1:1 Dulbecco’s modified Eagle medium (DMEM)/Ham’s F12 (Gibco). Both media were supplemented with 10% fetal calf serum (Gibco), L-glutamine 4 mM (Gibco), penicillin 100 U/mL (Carl Roth), and streptomycin 100 μg/mL (Carl Roth). Stably transfected T-Rex Flp-In HEK293 cells were selected with 100 μg/mL hygromycin (Carl Roth). Expression of the recombinant NTCP proteins was induced with 5 μg/mL tetracycline treatment for 72 hours. All cell lines were cultivated in 5% CO2 atmosphere at 37 °C. Cell lines were routinely checked for possible mycoplasma contamination. […]
To study the HBV receptor function of NTCP, NTCPwt-HEK293 and NTCP-Y146A/F274A-HEK293 cells were incubated with the C-terminally Alexa 568 fluorophore-coupled myr-preS1 peptide (further referred to as myr-preS1-AX568), which consists of amino acids 2 to 48 of the large HBV genotype D3 surface protein (Biosynthesis). […] Myr-preS1-AX568 peptide binding was analyzed using Leica DMI6000 B inverted fluorescent microscope and LAS X software, or fluorescence was quantified with Spark multimode microplate reader (Spark Multimode Microplate, Tecan) (excitation: 570 nm, emission: 615 nm). […] Cell-associated radioactivity was quantified by liquid scintillation counting in a Packard Microplate Scintillation Counter TopCount NXT.

NTCP variants = conditions: cited from earlier work
Description: This is exemplified by the genetic c.800G>A variant (rs2296651) that is frequent in East Asian populations and that leads to S267F mutation of NTCP inside the tunnel structure. […] More detailed analysis ... || Interaction site A is formed between F13 and F14 of myr-preS1 and the amino acids Q264, F283, F284, and L287 (TM8b, EL4, and TM9) as well as F18 (TM1) of NTCP; interaction sites B between F23 of myr-preS1 and V29 and V32 of NTCP; and interaction site C between K38, D39, H40, and W41 of myr-preS1 and A273, F274, and P275 (TM8b, EL4, and TM9) as well as Y146 (of EL2) of NTCP. For some of these amino acids, mutation studies confirmed their role for the myr-preS1 interaction. […] However, this domain also covers the surface of NTCP and not the tunnel structure. Within the published structures N87 forms hydrogen binds with E43 and K46 of the myr-preS1 string structure, while for the NTCP amino acid residues 84 to 86 no interactions with the myr-preS1 peptide could be detected. As mouse Ntcp with the corresponding residues 84HLTS87 has S ...

[2] = target: T1, human Na+/taurocholate co-transporting polypeptide, wild type, FLAG-tagged, on NTCPwt-HEK293 cells (human, UniProt Q14973 1-349); assay: cell-based or functional assay
T1 sequence (looked up): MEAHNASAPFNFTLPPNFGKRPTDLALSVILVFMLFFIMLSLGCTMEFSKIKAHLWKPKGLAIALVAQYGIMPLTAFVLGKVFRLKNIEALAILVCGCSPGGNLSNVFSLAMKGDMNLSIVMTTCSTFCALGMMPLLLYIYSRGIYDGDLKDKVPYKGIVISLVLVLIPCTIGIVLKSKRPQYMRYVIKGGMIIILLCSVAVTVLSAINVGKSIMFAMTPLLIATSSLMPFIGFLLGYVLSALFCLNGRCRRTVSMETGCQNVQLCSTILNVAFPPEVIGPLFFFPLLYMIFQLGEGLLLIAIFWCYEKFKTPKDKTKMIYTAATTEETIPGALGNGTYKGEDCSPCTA

[3] = target: T1, human Na+/taurocholate co-transporting …; assay: radioligand binding; competition: 5 nM [3H]preS1 on tetracycline-induced NTCP-HEK293 cells in 96-well plates, 10 minutes at 37 °C in DMEM, after preincubation with increasing concentrations of unlabelled peptide; cells without tetracycline as 0% control; liquid scintillation counting; 2 independent experiments; conditions: one partner purified

## CCCCCCCCCc1cc(OC(=O)c2c(CCCCCCCCC)cc(O)cc2OC2OC(CO)C(O)C(O)C2O)cc(O)c1C(=O)O (stereo not drawn) [exophillic acid]
NTCP; plant-derived compounds
  NTCP inhibition, selectivity virus binding vs bile acid transport: block NTCP in a nonselective manner

## CC(C)c1nc(CN(C)C(=O)N[C@H](C(=O)N[C@@H](Cc2ccccc2)C[C@H](O)[C@H](Cc2ccccc2)NC(=O)OCc2cncs2)C(C)C)cs1 [ritonavir]
NTCP; approved drugs
  NTCP inhibition, selectivity virus binding vs bile acid transport: block NTCP in a nonselective manner

## myr-preS1-AX568: C-terminally Alexa 568 fluorophore-coupled myr-preS1 peptide, amino acids 2 to 48 of the large HBV genotype D3 surface protein (Myristoyl-GQNLSTSNPLGFFPDHQLDPAFRANTANPDWDFNPNKDTWPDANKVG-{Alexa 568}; also: myristoylated (myr-preS1))
[1]
  binding to the Y146A/F274A NTCP mutant compared with NTCPwt: much lower binding to the NTCP-Y146A/F274A mutant compared with NTCPwt

## O=C1[C@H](CC[C@H](O)c2ccc(F)cc2)[C@@H](c2ccc(O)cc2)N1c1ccc(F)cc1 [ezetimibe]
NTCP; approved drugs
  NTCP inhibition, selectivity virus binding vs bile acid transport: block NTCP in a nonselective manner

## myr-preS1: myristoylated preS1 domain of the HBV large surface protein (Myristoyl-GQNLSTSNPLGFFPDHQLDPAFRANTANPDWDFNPNKDTWPDANKVG)
NTCP variants; 84 to 87 humanized construct of mouse Ntcp
  myr-preS1 binding: did not only bind myr-preS1 but also supported infection
NTCP variants; 158R NTCP variant found in OWM
  myr-preS1 binding: resistant to myr-preS1 binding
NTCP variants; NTCP Q264A mutant, bile acid transport retained
  myr-preS1 binding: significantly reduced myr-preS1 binding
NTCP variants; NTCP V272W mutant, intact bile acids transport
  myr-preS1 binding: significantly reduced myr-preS1 binding
NTCP variants; R158G mutation of OWM Ntcp
  myr-preS1 binding: sufficient to support myr-preS1 binding

## CC[C@H]1[C@@H](O)[C@@H]2[C@H](CC[C@]3(C)[C@@H]([C@H](C)CCC(=O)O)CC[C@@H]23)[C@@]2(C)CC[C@@H](O)C[C@@H]12 [obeticholic acid]
NTCP; bile acid derivatives
  NTCP inhibition, selectivity virus binding vs bile acid transport: block NTCP in a nonselective manner

## CCCCC1=NC2(CCCC2)C(=O)N1Cc1ccc(-c2ccccc2-c2nnn[nH]2)cc1 [irbesartan]
NTCP; approved drugs
  NTCP inhibition, selectivity virus binding vs bile acid transport: block NTCP in a nonselective manner

## CN(CCOc1ccc(CC2SC(=O)NC2=O)cc1)c1ccccn1 (stereo not drawn) [rosiglitazone]
NTCP; approved drugs
  NTCP inhibition, selectivity virus binding vs bile acid transport: block NTCP in a nonselective manner

## C=C(C)[C@@H]1CC[C@]2(C(=O)O)CC[C@]3(C)[C@H](CC[C@@H]4[C@@]5(C)CC[C@H](O)C(C)(C)[C@@H]5CC[C@]43C)[C@@H]12 [betulinic acid]
NTCP; plant-derived compounds
  NTCP inhibition, selectivity virus binding vs bile acid transport: block NTCP in a nonselective manner

## CCC(C)CC(C)C(=O)OC1(C)C(=O)c2c(cc(O)c3c2CC(O)CC3C)C(C)(O)C1=O (stereo not drawn) [vanitaracin A]
NTCP; plant-derived compounds
  NTCP inhibition, selectivity virus binding vs bile acid transport: block NTCP in a nonselective manner

B1: wild-type myr-preS1 peptide of HBV genotype D (unlabelled) (peptide)
peptide: GQNLSTSNPLGFFPDHQLDPAFRANTANPDWDFNPNKDTWPDANKVG
modifications: not fully specified (N-terminus); also: myristoylated (myr-preS1)
notes: also called myr-preS1 WT; wild-type myr-preS1 peptide (genotype D)
[2]
  inhibition of [3H]TCA (1 μM) transport via NTCP in NTCP-HEK293 cells, 10 minutes at 37 °C, IC50: 111 nM and 221 nM
[3]
  IC50: 99 nM and 168 nM

B2: W41G mutant myr-preS1 peptide of HBV genotype D (peptide)
peptide: GQNLSTSNPLGFFPDHQLDPAFRANTANPDWDFNPNKDTGPDANKVG
modifications: not fully specified (N-terminus); also: myristoylated (myr-preS1)
notes: also called myr-preS1-W41G; myr-preS1 W41G peptide; source: bought: ProteoGenix S.A.S
[2]
  inhibition of [3H]TCA (1 μM) transport via NTCP in NTCP-HEK293 cells, 10 minutes at 37 °C, IC50: 386 nM and 397 nM
[3]
  IC50: 422 nM and 298 nM
